Results reported in patent US8846694B2, “Pyrrolidone derivatives for use as MetAP-2 inhibitors” (Merck Patent GmbH, priority 2008, dated 2014).
Structures can show the parent of a compound that is named as a salt.

Molecular target: MetAP-2 (Homo sapiens, UniProt P50579)
Experiment: MetAP-2 activity measurement (coupled enzymatic reactions, substrate Met-Arg-Ser, photometric at 450 nm)
Type: biochemical
Conditions: read-out: IC50 enzyme (Inhibition of MetAP-2)
Method in brief: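 Human MetAP-2 cleaves Met-Arg-Ser; the freed methionine is oxidized by L-amino acid oxidase, and the resulting H2O2 drives peroxidase oxidation of dianisidine, read continuously at 450 nm. Activity is taken as the slope in the visually linear region.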

Sequence of MetAP-2 (P50579 whole entry, species assumed): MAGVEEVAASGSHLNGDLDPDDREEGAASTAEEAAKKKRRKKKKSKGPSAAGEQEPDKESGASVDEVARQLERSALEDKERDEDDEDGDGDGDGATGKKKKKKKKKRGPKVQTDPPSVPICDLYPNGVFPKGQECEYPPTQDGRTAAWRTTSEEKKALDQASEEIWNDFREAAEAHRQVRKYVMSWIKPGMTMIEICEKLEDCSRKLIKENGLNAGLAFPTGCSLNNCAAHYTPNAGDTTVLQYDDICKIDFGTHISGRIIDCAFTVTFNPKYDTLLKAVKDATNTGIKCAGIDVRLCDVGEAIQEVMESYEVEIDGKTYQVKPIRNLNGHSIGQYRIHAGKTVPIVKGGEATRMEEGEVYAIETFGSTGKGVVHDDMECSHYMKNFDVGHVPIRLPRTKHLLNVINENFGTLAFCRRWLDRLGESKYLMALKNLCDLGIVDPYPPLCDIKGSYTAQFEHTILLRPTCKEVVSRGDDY

Row | IC50 | Structure (SMILES)
1 | 10 to 1000 nM | c1ccc2c(OC[C@H]3CCCN3c3ncnc4[nH]cnc34)cncc2c1 [A148, 4-[(R)-1-(9H-Purin-6-yl)pyrrolidin-2-yl-methoxy]isoquinoline]
2 | > 10000 nM | O=C(NCCN1CCOCC1)c1cc(OC[C@H]2CCCN2c2ncnc3[nH]cnc23)c2ccccc2n1 [A149, N-(2-Morpholin-4-ylethyl)-4-[(R)-1-(9H-purin-6-yl)pyrrolidin-2-ylmethoxy]quinoline-2-carboxamide]
3 | 10 to 1000 nM | O=C(NCCCN1CCOCC1)c1cc(OC[C@H]2CCCN2c2ncnc3[nH]cnc23)c2ccccc2n1 [A150, N-(3-Morpholin-4-ylpropyl)-4-[(R)-1-(9H-purin-6-yl)pyrrolidin-2-ylmethoxy]quinoline-2-carboxamide]
4 | 10 to 1000 nM | COC(=O)c1c(OC[C@H]2CCCN2c2ncnc3[nH]cnc23)c2cc(F)ccc2n1C [A151, Methyl 5-fluoro-1-methyl-3-[(R)-1-(9H-purin-6-yl)pyrrolidin-2-ylmethoxy]-1H-indole-2-carboxylate]
5 | > 10000 nM | COc1ccc(CCOc2cc3c(OC[C@H]4CCCN4c4ncnc5[nH]cnc45)ccc(CCc4ccc(OC)cc4)c3cc2C(=O)N(C)C)cc1 [A152, N,N-Dimethyl-3-[2-(4-methoxyphenyl)ethoxy]-8-[2-(4-methoxyphenyl)ethyl]-5-[(R)-1-(9H-purin-6-yl)pyrrolidin-2-ylmethoxy]naphthalene-2-carboxamide]
6 | 10 to 1000 nM | Clc1ccc(-n2ccc(OC[C@H]3CCCN3c3ncnc4[nH]cnc34)n2)c(Cl)c1 [A153, 6-{(R)-2-[1-(2,4-Dichlorophenyl)-1H-pyrazol-3-yloxymethyl]pyrrolidin-1-yl}-9H-purine]
7 | 1000 to 10000 nM | CCNC(=O)Nc1ccc2cccc(OC[C@H]3CCCN3c3ncnc4[nH]cnc34)c2c1 [A154, 1-Ethyl-3-{8-[(R)-1-(9H-purin-6-yi)pyrrolidin-2-yl-methoxy]naphthalen-2-yl}urea]
8 | 1000 to 10000 nM | CCNC(=O)N1CCN(c2ccc3cccc(OC[C@H]4CCCN4c4ncnc5[nH]cnc45)c3c2)CC1 [A155, N-Ethyl-4-{8-[(R)-1-(9H-purin-6-yl)pyrrolidin-2-yl-methoxy]naphthalen-2-yl}piperazine-1-carboxamide]
9 | 1000 to 10000 nM | O=C(NCc1ccco1)N1CCN(c2ccc3cccc(OC[C@H]4CCCN4c4ncnc5[nH]cnc45)c3c2)CC1 [A156, N-(Furan-2-ylmethyl)-4-{8-[(R)-1-(9H-purin-6-yl)-pyrrolidin-2-ylmethoxy]naphthalen-2-yl}-piperazine-1-carboxamide]
10 | 1000 to 10000 nM | CCOC(=O)CNC(=O)N1CCN(c2ccc3cccc(OC[C@H]4CCCN4c4ncnc5[nH]cnc45)c3c2)CC1 [A157, Ethyl [(4-{8-[(R)-1-(9H-purin-6-yl)pyrrolidin-2-yl-methoxy]naphthalen-2-yl}piperazine-1-carbonyl)amino]acetate]
11 | > 10000 nM | O=C(O)CNC(=O)N1CCN(c2ccc3cccc(OC[C@H]4CCCN4c4ncnc5[nH]cnc45)c3c2)CC1 [A158, [(4-{8-[(R)-1-(9H-Purin-6-yl)pyrrolidin-2-yl-methoxy]naphthalen-2-yl}piperazine-1-carbonyl)amino]acetic acid]
12 | 1000 to 10000 nM | O=C(NCc1ccco1)Nc1ccc2cccc(OC[C@H]3CCCN3c3ncnc4[nH]cnc34)c2c1 [A159, 1-Furan-2-ylmethyl-3-{8-[(R)-1-(9H-purin-6-yl)-pyrrolidin-2-ylmethoxy]naphthalen-2-yl}urea]
13 | > 10000 nM | COC(=O)CC[C@H](NC(=O)OCc1ccccc1)C(=O)Nc1ccc2cccc(OC[C@H]3CCCN3c3ncnc4[nH]cnc34)c2c1 [A160, Methyl (S)-4-benzyloxycarbonylamino-4-{8-[(R)-1-(9H-purin-6-yl)pyrrolidin-2-ylmethoxy]-naphthalen-2-ylcarbamoyl}butyrate]
14 | 1000 to 10000 nM | CC(C)(C)OC(=O)N[C@@H](CCC(N)=O)C(=O)Nc1ccc2cccc(OC[C@H]3CCCN3c3ncnc4[nH]cnc34)c2c1 [A161, tert-Butyl ((S)-3-carbamoyl-1-{8-[(R)-1-(9H-purin-6-yl)pyrrolidin-2-ylmethoxy]naphthalen-2-ylcarbamoyl}propyl)carbamate]
15 | 1000 to 10000 nM | CC(C)(C)OC(=O)N[C@H](CC(N)=O)C(=O)Nc1ccc2cccc(OC[C@H]3CCCN3c3ncnc4[nH]cnc34)c2c1 [A162, tert-Butyl ((R)-2-carbamoyl-1-{8-[(R)-1-(9H-purin-6-yl)pyrrolidin-2-ylmethoxy]naphthalen-2-ylcarbamoyl}ethyl)carbamate]
16 | 1000 to 10000 nM | CC(C)(C)OC(=O)N[C@@H](Cc1c[nH]cn1)C(=O)Nc1ccc2cccc(OC[C@H]3CCCN3c3ncnc4[nH]cnc34)c2c1 [A163, tert-Butyl ((S)-2-(1H-imidazol-4-yl)-1-{8-[(R)-1-(9H-purin-6-yl)pyrrolidin-2-ylmethoxy]-naphthalen-2-ylcarbamoyl}ethyl)carbamate]
17 | 1000 to 10000 nM | N[C@@H](Cc1c[nH]cn1)C(=O)Nc1ccc2cccc(OC[C@H]3CCCN3c3ncnc4[nH]cnc34)c2c1 [A164, (S)-2-Amino-3-(1H-imidazol-4-yl)-N-{8-[(R)-1-(9H-purin-6-yl)pyrrolidin-2-ylmethoxy]-naphthalen-2-yl}propionamide * HCl]
18 | 1000 to 10000 nM | NC(=O)CC[C@H](N)C(=O)Nc1ccc2cccc(OC[C@H]3CCCN3c3ncnc4[nH]cnc34)c2c1 [A165, N-(1-({8-[(R)-1-(9H-Purin-6-yl)pyrrolidin-2-yl-methoxy]naphthalen-2-yl})-(S)-2-aminopentan-5-amide * HCl]

Row | IC50 | Structure (SMILES)
19 | 10 to 1000 nM | O=CN1CCN(c2ccc3cccc(OC[C@H]4CCCN4c4ncnc5[nH]cnc45)c3c2)CC1 [A166, 4-{8-[(R)-1-(9H-Purin-6-yl)pyrrolidin-2-ylm-ethoxy]naphthalen-2-yl}piperazine-1-carbaldehyde]
20 | 1000 to 10000 nM | CC(C)(C)OC(=O)NCC(=O)N1CCN(c2ccc3cccc(OC[C@H]4CCCN4c4ncnc5[nH]cnc45)c3c2)CC1 [A167, tert-Butyl [2-oxo-2-(4-{8-[(R)-1-(9H-purin-6-yl)-pyrrolidin-2-ylmethoxy]naphthalen-2-yl}-piperazin-1-yl)ethyl]carbamate]
21 | 1000 to 10000 nM | NCC(=O)N1CCN(c2ccc3cccc(OC[C@H]4CCCN4c4ncnc5[nH]cnc45)c3c2)CC1 [A168, 2-Amino-1-(4-{8-[(R)-1-(9H-purin-6-yl)pyrrolidin-2-ylmethoxy]naphthalen-2-yl}piperazin-1-yl)-ethanone]
22 | 1000 to 10000 nM | OC1CCN(C2CCc3cccc(OC[C@H]4CCCN4c4ncnc5[nH]cnc45)c3C2)C1 (stereo partly drawn) [A169, 1-{8-[(R)-1-(9H-Purin-6-yl)pyrrolidin-2-yl-methoxy]-1,2,3,4-tetrahydronaphthalen-2-yl}pyrrolidin-3-ol]
23 | 10 to 1000 nM | OC1CN(C2CCc3cccc(OC[C@H]4CCCN4c4ncnc5[nH]cnc45)c3C2)C1 (stereo partly drawn) [A170, 1-{8-[(R)-1-(9H-Purin-6-yl)pyrrolidin-2-yl-methoxy]-1,2,3,4-tetrahydronaphthalen-2-yl}azetidin-3-ol]
24 | 1000 to 10000 nM | CC(=O)NC1CCN(C2CCc3cccc(OC[C@H]4CCCN4c4ncnc5[nH]cnc45)c3C2)C1 (stereo partly drawn) [A171, N-(1-{8-[(R)-1-(9H-Purin-6-yl)pyrrolidin-2-yl-methoxy]-1,2,3,4-tetrahydronaphthalen-2-yl}pyrrolidin-3-yl)acetamide]
25 | 1000 to 10000 nM | c1ccc2c(NCCN3CCOCC3)ncc(OC[C@H]3CCCN3c3ncnc4[nH]cnc34)c2c1 [A172, (2-Morpholin-4-ylethyl)-{4-[(R)-1-(9H-purin-6-yl)-pyrrolidin-2-ylmethoxy]isoquinolin-1-yl}amine]
26 | 10 to 1000 nM | CN(C)C(=O)CC1CCc2c(OC[C@H]3CCCN3c3ncnc4[nH]cnc34)cccc2C1=O (stereo partly drawn) [A173, N,N-Dimethyl-2-{1-oxo-5-[(R)-1-(9H-purin-6-yl)-pyrrolidin-2-ylmethoxy]-1,2,3,4-tetrahydro-naphthalen-2-yl}acetamide]
27 | 10 to 1000 nM | CN(C)C(=O)C[C@@H]1CCc2c(OC[C@H]3CCCN3c3ncnc4[nH]cnc34)cccc2C1=O [A174, N,N-Dimethyl-2-{(S)-1-oxo-5-[(R)-1-(9H-purin-6-yl)pyrrolidin-2-ylmethoxy]-1,2,3,4-tetrahydro-naphthalen-2-yl}acetamide]
28 | 10 to 1000 nM | CN(C)C(=O)C[C@H]1CCc2c(OC[C@H]3CCCN3c3ncnc4[nH]cnc34)cccc2C1=O [A175, N,N-Dimethyl-2-{(R)-1-oxo-5-[(R)-1-(9H-purin-6-yl)pyrrolidin-2-ylmethoxy]-1,2,3,4-tetrahydro-naphthalen-2-yl}acetamide]
29 | 10 to 1000 nM | CCNC(=O)CC1CCc2c(OC[C@H]3CCCN3c3ncnc4[nH]cnc34)cccc2C1=O (stereo partly drawn) [A176, N-Ethyl-2-{1-oxo-5-[(R)-1-(9H-purin-6-yl)-pyrrolidin-2-ylmethoxy]-1,2,3,4-tetrahydro-naphthalen-2-yl}acetamide]
30 | 1000 to 10000 nM | NC(=O)C[C@@H](N)C(=O)Nc1ccc2cccc(OC[C@H]3CCCN3c3ncnc4[nH]cnc34)c2c1 [A177, (R)-2-Amino-N1-{8-[(R)-1-(9H-purin-6-yl)-pyrrolidin-2-ylmethoxy]naphthalen-2-yl}succinamide]
31 | 1000 to 10000 nM | c1ccc2c(NCCCN3CCOCC3)ncc(OC[C@H]3CCCN3c3ncnc4[nH]cnc34)c2c1 [A178, (3-Morpholin-4-ylpropyl)-{4-[(R)-1-(9H-purin-6-yl)pyrrolidin-2-ylmethoxy]isoquinolin-1-yl}amine]
32 | 10 to 1000 nM | CNC(=O)CC1CCc2c(OC[C@H]3CCCN3c3ncnc4[nH]cnc34)cccc2C1=O (stereo partly drawn) [A179, N-Methyl-2-{1-oxo-5-[(R)-1-(9H-purin-6-yl)-pyrrolidin-2-ylmethoxy]-1,2,3,4-tetrahydro-naphthalen-2-yl}acetamide]
33 | 10 to 1000 nM | O=C(CC1CCc2c(OC[C@H]3CCCN3c3ncnc4[nH]cnc34)cccc2C1=O)NCCO (stereo partly drawn) [A180, N-(2-Hydroxyethyl)-2-{1-oxo-5-[(R)-1-(9H-purin-6-yl)pyrrolidin-2-ylmethoxy]-1,2,3,4-tetrahydro-naphthalen-2-yl}acetamide]
34 | 10 to 1000 nM | CN(C)CCNc1ncc(OC[C@H]2CCCN2c2ncnc3[nH]cnc23)c2ccccc12 [A181, N,N-Dimethyl-N′-{4-[(R)-1-(9H-purin-6-yl)-pyrrolidin-2-ylmethoxy]isoquinolin-1-yl}ethane-1,2-diamine]
35 | 10 to 1000 nM | CN(C)CCCNc1ncc(OC[C@H]2CCCN2c2ncnc3[nH]cnc23)c2ccccc12 [A182]
